Where a name gives a salt, the structure may show the parent alone. Read-outs that look alike come from different tables or passages of the source.
Assays:
[1] = Pharmacokinetics in moderate renal impairment versus matched controls
Source text: (§1) References used are the matched healthy subjects for renal and hepatic impairment studies, and extensive or ultra-extensive CYP2D6 metabolizers respectively.

[2] = Pharmacokinetics in moderate hepatic impairment versus matched healthy subjects; format: in vivo, human
Source text: Data are GMRs and 90% Cls. References used are the matched healthy subjects for renal and hepatic impairment studies, and extensive or ultra-extensive CYP2D6 metabolizers respectively.

[3] = Steady state pharmacokinetics after administration of the subject combination; conditions: for AUC0-12 relative to that of bupropion / Cmax relative to that of bupropion / time post-dose at which Cmax of the metabolite occurs: after administration of the subject combination; for apparent elimination half-life of metabolite: subject combination; for dose proportionality of changes in AUC and Cmax at steady state: co-administered with bupropion
[4] = Co-administration of paroxetine and the subject combination (drug interaction)
[5] = Effect of food on pharmacokinetics of the subject combination
[6] = Pharmacokinetics in CYP2D6 poor metabolizers versus extensive metabolizers; conditions: 12 poor metabolizers treated with the subject combination in efficacy trials
Source text: Approximately 7% to 10% of Caucasians and 3% to 8% of African Americans lack the capacity to metabolize CYP2D6 substrates and are classified as poor metabolizers.
as §1

[7] = Solubility of the powder in water
[8] = human, in vivo
[9] = system: patients with treatment-resistant depression or MDD with acute suicidal ideation or behavior; conditions: cited from earlier work
[10] = 20 mg paroxetine, tablet of Example 4 twice daily, vs tablet without paroxetine
[11] = 7 subjects with moderate (GFR 30-60 mL/min) renal impairment vs 6 matched controls
[12] = given as the subject combination

CC(NC(C)(C)C)C(=O)c1cccc(Cl)c1 (racemic) [bupropion]
increase in exposure versus matched controls with normal renal function ([1]; human, in vivo): approximately 2 fold | reduction in clearance versus matched controls with normal renal function ([1]; human, in vivo): 50% | AUC0-12 and Cmax compared with healthy patients ([2]; human, in vivo): not significantly different

C[C@H](NC(C)(C)C)[C@@H](O)c1cccc(Cl)c1 [threohydroxybupropion]
AUC0-12 relative to that of bupropion [3]: about 7 times | Cmax relative to that of bupropion [3]: about 5 times | time post-dose at which Cmax of the metabolite occurs [3]: approximately 4 hours | apparent elimination half-life of metabolite [3]: ~33 h

COc1ccc2c(c1)[C@]13CCCC[C@@H]1[C@H](C2)N(C)CC3 [dextromethorphan]
increase in AUC0-12 with concomitant paroxetine [4, 10]: 2.69 fold | increase in Cmax with concomitant paroxetine [4, 10]: 2.38 fold | change in overall exposure caused by paroxetine ([4]; 29 healthy volunteers, paroxetine co-administered with the subject combination): 2.5 fold | change in Cmax when administered with food [5]: unchanged | decrease in AUC0-12 when administered with food [5]: 14% | increase in exposure versus matched controls with normal renal function [1, 11]: approximately 2 fold | reduction in clearance versus matched controls with normal renal function [1, 11]: 50% | steady state plasma concentrations compared with non-poor metabolizers [6]: generally higher | dose proportionality of changes in AUC and Cmax at steady state ([3]; varying doses of bupropion (75 to 150 mg)): less than dose-proportional | dose proportionality of changes in AUC and Cmax at steady state ([3]; varying doses of dextromethorphan (30 to 60 mg)): greater than dose-proportional | increase in mean elimination half-life as compared to dextromethorphan given without bupropion ([3]; following 8 days of administration of the subject combination in extensive metabolizers): approximately 3 fold | accumulation ratio at steady state based on AUC0-12 [3, 12]: about 32 | accumulation ratio at steady state based on Cmax [3, 12]: about 20 | AUC0-12 and Cmax compared with healthy patients ([2]; patients having moderate hepatic impairment (Group 2)): not significantly different

CC(NC(C)(C)C)C(O)c1cccc(Cl)c1 (centres unmarked) [erythrohydroxybupropion]
AUC0-12 relative to that of bupropion [3]: about 1.2 times | Cmax relative to that of bupropion [3]: approximately equal to | time post-dose at which Cmax of the metabolite occurs [3]: approximately 4 hours | apparent elimination half-life of metabolite [3]: ~44 h

COc1ccc2c(c1)[C@]13CCCC[C@@H]1[C@H](C2)N(C)CC3 [Dextromethorphan hydrobromide, morphinan, 3-methoxy-17-methyl-, (9α, 13α, 14α), hydrobromide monohydrate]
solubility in water [7]: sparingly soluble

Fc1ccc([C@@H]2CCNC[C@H]2COc2ccc3c(c2)OCO3)cc1 [paroxetine]
increase in overall exposure when co-administered with the subject combination [8]: 1.2 fold

CN[C@]1(c2ccccc2Cl)CCCCC1=O [esketamine]
incidence of sedation (MOAA/S score <5) compared to placebo plus oral antidepressant ([9]; adults with MDD with acute suicidal ideation or behavior, plus oral antidepressant): higher incidence of sedation | Incidence of Sedation (MOAA/S score <5) ([9]; fixed-dose study, TRD patients <65 years, 56 mg + oral AD): 50% | Incidence of Sedation (MOAA/S score <5) ([9]; fixed-dose study, TRD patients <65 years, 84 mg + oral AD): 61% | Incidence of Sedation (MOAA/S score <5) ([9]; flexible-dose study, TRD patients ≥65 years, 28 to 84 mg + oral AD): 49%

C[C@H]1NC(C)(C)CO[C@]1(O)c1cccc(Cl)c1 [hydroxybupropion]
AUC0-12 relative to that of bupropion [3]: about 19 times | Cmax relative to that of bupropion [3]: approximately 14 times | time post-dose at which Cmax of the metabolite occurs [3]: about 3 hours | apparent elimination half-life of metabolite [3]: approximately 35 hours

From patent publication US20260240835A1 (priority 2022, published 2026)
